Measurements published in ChEMBL document CHEMBL5726766, “Sulfonamide compounds as voltage-gated sodium channel modulators” (2019).
pIC50: −log10 of the molar value.

Columns and labels:
[1] = (§1) Membrane potential dye assay: HEK-293 cells overexpressing the channel of interest were seeded in a 96-well plate at a density of 30000 cells/well and incubated at 37° C./5% CO2 for 48 hr. The assay was carried out using the Red Membrane Potential Dye (Molecular Devices) following the manufacturer's instructions. Briefly, the cells were incubated with 1× red membrane potential dye for 1.5 hour. The cells were then treated with various concentrations of the test compounds for 15-20 min followed by depolarization with 10-30 μM Veratridine. The fluorescence was read following excitation at 510-545 nm and emission at 565-625 nm in FLIPR. The “max-min” fluorescence values were used to calculate the % inhibition.; details: HEK293
[2] = as §1; details: HEK293; remark: listed apart in the source

Cc1nc(-c2cc(C(F)(F)F)ccc2[C@H]2CCOc3cc(S(=O)(=O)Nc4ncc(F)cn4)ccc32)cs1
pIC50 [1]: < 5.00
pIC50 [2]: 8.10

O=S(=O)(Nc1cccc(F)n1)c1ccc2c(c1)OCC[C@@H]2c1ccc(C(F)(F)F)cc1O[C@H]1CCOC1
pIC50 [2]: 9.05

O=S(=O)(Nc1ncc(F)cn1)c1ccc2c(c1)OCC[C@H]2c1ccc(C(F)(F)F)cc1-c1nccs1
pIC50 [1]: < 5.00
pIC50 [2]: 5.95

O=S(=O)(Nc1ncccn1)c1ccc2c(c1)OCC[C@H]2c1ccc(C(F)(F)F)cc1O[C@@H]1CCOC1
pIC50 [2]: 7.08

Cc1nc(-c2cc(C(F)(F)F)ccc2[C@@H]2CCOc3cc(S(=O)(=O)Nc4cccc(F)n4)ccc32)cs1
pIC50 [1]: < 5.00

O=S(=O)(Nc1ncccn1)c1ccc2c(c1)OCC[C@H]2c1ccc(C(F)(F)F)cc1C1CCOCC1
pIC50 [1]: < 5.00

Cn1nccc1-c1cc(C(F)(F)F)ccc1[C@@H]1CCOc2cc(S(=O)(=O)Nc3cnccn3)ccc21
pIC50 [1]: < 5.00

O=C1COCCN1c1cc(C(F)(F)F)ccc1[C@@H]1CCOc2cc(S(=O)(=O)Nc3ncccn3)ccc21
pIC50 [1]: < 5.00

O=S(=O)(Nc1cccc(F)n1)c1ccc2c(c1)OCC[C@H]2c1ccc(C(F)(F)F)cc1OC1CCOCC1
pIC50 [1]: 5.44

CC(C)Oc1cccc(NS(=O)(=O)c2ccc3c(c2)OCC[C@H]3c2ccc(C(F)(F)F)cc2-c2ccnn2C)n1
pIC50 [1]: < 5.00

O=S1(=O)CCN(c2cc(C(F)(F)F)ccc2[C@H]2CCOc3cc(S(=O)(=O)Nc4cccc(F)n4)ccc32)CC1 (racemic)
pIC50 [1]: < 5.00

O=S(=O)(Nc1ncccn1)c1ccc2c(c1)OCC[C@H]2c1ccc(C(F)(F)F)cc1OC1CCOCC1
pIC50 [1]: < 5.00

COCCc1cc(C(F)(F)F)ccc1[C@H]1CCOc2cc(S(=O)(=O)Nc3ncccn3)ccc21 (racemic)
pIC50 [1]: < 5.00

O=S(=O)(Nc1ncc(F)cn1)c1ccc2c(c1)OCC[C@@H]2c1ccc(C(F)(F)F)cc1Cl (racemic)
pIC50 [1]: < 5.00

O=S(=O)(Nc1ccncn1)c1ccc2c(c1)OCC[C@H]2c1ccc(C(F)(F)F)cc1OC1CCOCC1
pIC50 [1]: < 5.00

Cn1nccc1-c1cc(C(F)(F)F)ccc1[C@H]1CCOc2cc(S(=O)(=O)Nc3cccnc3F)ccc21
pIC50 [1]: < 5.00

Cc1nc(-c2cc(C(F)(F)F)ccc2[C@H]2CCOc3cc(S(=O)(=O)Nc4cccnn4)ccc32)cs1
pIC50 [1]: < 5.00

CC(C)Oc1cccc(NS(=O)(=O)c2ccc3c(c2)OCC[C@@H]3c2ccc(C(F)(F)F)cc2-c2ccnn2C)n1
pIC50 [1]: < 5.00

Cc1nc(-c2cc(C(F)(F)F)ccc2[C@@H]2CCOc3cc(S(=O)(=O)Nc4ncccn4)ccc32)cs1
pIC50 [1]: < 5.00

O=C(O)c1ccc(-c2cc(C(F)(F)F)ccc2[C@H]2CCOc3cc(S(=O)(=O)Nc4cccnn4)ccc32)cc1 (racemic)
pIC50 [1]: < 5.00

O=C1CCCN1c1cc(C(F)(F)F)ccc1[C@H]1CCOc2cc(S(=O)(=O)Nc3ccncn3)ccc21 (racemic)
pIC50 [1]: < 5.00

COCCCc1cc(C(F)(F)F)ccc1[C@@H]1CCOc2cc(S(=O)(=O)Nc3ncccn3)ccc21
pIC50 [1]: < 5.00

O=S(=O)(Nc1ncccn1)c1ccc2c(c1)OCC[C@@H]2c1ccc(C(F)(F)F)cc1Cl (racemic)
pIC50 [1]: < 5.00

CS(=O)(=O)CCc1cc(C(F)(F)F)ccc1[C@H]1CCOc2cc(S(=O)(=O)Nc3cccc(F)n3)ccc21
pIC50 [1]: < 5.00

O=C1OCCN1c1cc(C(F)(F)F)ccc1[C@H]1CCOc2cc(S(=O)(=O)Nc3ncccn3)ccc21 (racemic)
pIC50 [1]: < 5.00

O=C1CCCN1c1cc(C(F)(F)F)ccc1[C@@H]1CCOc2cc(S(=O)(=O)Nc3ncc(F)cn3)ccc21
pIC50 [1]: < 5.00

O=S(=O)(Nc1cccnn1)c1ccc2c(c1)OCC[C@@H]2c1ccc(C(F)(F)F)cc1-n1ccnn1
pIC50 [1]: < 5.00

O=S(=O)(Nc1ccncn1)c1ccc2c(c1)OCC[C@@H]2c1ccc(C(F)(F)F)cc1CCF (racemic)
pIC50 [1]: < 5.00

O=S1(=O)CCN(c2cc(C(F)(F)F)ccc2[C@H]2CCOc3cc(S(=O)(=O)Nc4ncc(F)cn4)ccc32)CC1 (racemic)
pIC50 [1]: < 5.00

O=S(=O)(Nc1ncccn1)c1ccc2c(c1)OCC[C@H]2c1ccc(C(F)(F)F)cc1-n1ccnn1
pIC50 [1]: < 5.00

O=S(=O)(Nc1cccc(F)n1)c1ccc2c(c1)OCC[C@@H]2c1ccc(C(F)(F)F)cc1-n1cccn1
pIC50 [1]: < 5.00

Cc1ccnc(NS(=O)(=O)c2ccc3c(c2)OCC[C@H]3c2ccc(C(F)(F)F)cc2-c2ccnn2C)n1
pIC50 [1]: < 5.00

O=S(=O)(Nc1ncccn1)c1ccc2c(c1)OCC[C@H]2c1ccc(C(F)(F)F)cc1OC1COC1
pIC50 [1]: < 5.00

O=C1CCCN1c1cc(C(F)(F)F)ccc1[C@H]1CCOc2cc(S(=O)(=O)Nc3ncccn3)ccc21 (racemic)
pIC50 [1]: < 5.00

COCCCOc1cc(C(F)(F)F)ccc1[C@H]1CCOc2cc(S(=O)(=O)Nc3ncc(F)cn3)ccc21 (racemic)
pIC50 [1]: < 5.00

COc1cc(C(F)(F)F)ccc1[C@H]1CCOc2cc(S(=O)(=O)Nc3ncccn3)ccc21
pIC50 [1]: < 5.00

CC(C)Oc1ccc(-c2cc(C(F)(F)F)ccc2[C@H]2CCOc3cc(S(=O)(=O)Nc4ncc(F)cn4)ccc32)cn1
pIC50 [1]: < 5.00

O=C1OCCN1c1cc(C(F)(F)F)ccc1[C@H]1CCOc2cc(S(=O)(=O)Nc3cccc(F)n3)ccc21 (racemic)
pIC50 [1]: < 5.00

Cn1nccc1-c1cc(C(F)(F)F)ccc1[C@H]1CCOc2cc(S(=O)(=O)Nc3ncccc3F)ccc21
pIC50 [1]: < 5.00

O=S1(=O)CCN(c2cc(C(F)(F)F)ccc2[C@H]2CCOc3cc(S(=O)(=O)Nc4ccncn4)ccc32)CC1 (racemic)
pIC50 [1]: < 5.00

O=S1(=O)CCN(c2cc(C(F)(F)F)ccc2[C@@H]2CCOc3cc(S(=O)(=O)Nc4ncccn4)ccc32)CC1
pIC50 [1]: < 5.00

O=S(=O)(Nc1ncccn1)c1ccc2c(c1)OCC[C@@H]2c1ccc(C(F)(F)F)cc1O[C@H]1CCOC1
pIC50 [2]: 7.42

COCCc1cc(C(F)(F)F)ccc1[C@H]1CCOc2cc(S(=O)(=O)Nc3cccnn3)ccc21 (racemic)
pIC50 [1]: < 5.00

O=S(=O)(Nc1cccnn1)c1ccc2c(c1)OCC[C@H]2c1ccc(C(F)(F)F)cc1-c1ccc(F)cn1
pIC50 [1]: < 5.00

Cc1ccnc(NS(=O)(=O)c2ccc3c(c2)OCC[C@@H]3c2ccc(C(F)(F)F)cc2-c2ccnn2C)n1
pIC50 [1]: < 5.00

COCCCCc1cc(C(F)(F)F)ccc1[C@@H]1CCOc2cc(S(=O)(=O)Nc3ncccn3)ccc21
pIC50 [1]: < 5.00

CS(=O)(=O)CCc1cc(C(F)(F)F)ccc1[C@@H]1CCOc2cc(S(=O)(=O)Nc3ncc(F)cn3)ccc21
pIC50 [1]: < 5.00

Cc1nc(-c2cc(C(F)(F)F)ccc2[C@@H]2CCOc3cc(S(=O)(=O)Nc4ccncn4)ccc32)cs1
pIC50 [1]: < 5.00

Cn1nccc1-c1cc(Cl)ccc1[C@H]1CCOc2cc(S(=O)(=O)Nc3cccc(F)n3)ccc21
pIC50 [1]: < 5.00

CCCc1cc(C(F)(F)F)ccc1[C@@H]1CCOc2cc(S(=O)(=O)Nc3ncc(F)cn3)ccc21
pIC50 [1]: < 5.00

CS(=O)(=O)CCc1cc(C(F)(F)F)ccc1[C@H]1CCOc2cc(S(=O)(=O)Nc3ncc(F)cn3)ccc21
pIC50 [1]: < 5.00

CC(C)Oc1ccc([C@@H]2CCOc3cc(S(=O)(=O)Nc4cccc(F)n4)ccc32)c(-c2ccnn2C)c1
pIC50 [1]: < 5.00

O=S(=O)(Nc1cccnn1)c1ccc2c(c1)OCC[C@@H]2c1ccc(C(F)(F)F)cc1Cl (racemic)
pIC50 [1]: < 5.00

O=S1(=O)CCN(c2cc(C(F)(F)F)ccc2[C@H]2CCOc3cc(S(=O)(=O)Nc4ncccn4)ccc32)CC1
pIC50 [1]: < 5.00

O=S(=O)(Nc1ncc(F)cn1)c1ccc2c(c1)OCC[C@@H]2c1ccc(C(F)(F)F)cc1CCC(F)F (racemic)
pIC50 [1]: < 5.00

CS(=O)(=O)CCc1cc(C(F)(F)F)ccc1[C@@H]1CCOc2cc(S(=O)(=O)Nc3ncccn3)ccc21
pIC50 [1]: < 5.00
